{"source": "patent US5246949A", "about": "“Preparation for endermism containing dopamine derivatives” (Sansho Co., Ltd., priority 1989, dated 1993)", "key": {"[1]": {"conditions": "oral or percutaneous; cited from earlier work"}, "[2]": {"experiment": "in vitro skin permeability test (horizontal membrane type in vitro diffusion cell, HPLC determination)", "conditions": "for skin permeability on adding a higher alcohol: Test Examples 5 to 8, FIGS. 5 to 8, 10% by weight; for skin permeability on adding a lactic acid ester: Test Example 1, FIG. 1", "experimental": "100 mg of each dopamine derivative hydrochloride as shown in Table 1 was weighed and 900 mg of propylene glycol was added thereto to obtain a solution or suspension containing 10% by weight of each dopamine derivative hydrochloride. These solutions and suspensions were referred to as comparative samples a to e, respectively.\nThen 50 mg (in the cases of invention samples A to D) or 100 mg (in the cases of invention samples E to H) of each lactic acid ester or fatty acid monoglyceride as shown in Table 1 was added thereto. Further, propylene glycol was added to make the total amount 1000 mg. Thus, a solution or suspension containing 10% by weight of each dopamine derivative hydrochloride was obtained. These solutions and suspensions were referred to as invention samples A to H.\n100 mg of each dopamine derivative hydrochloride as shown in Table 2 was weighed and 900 mg of polyethylene glycol 400 was added thereto. Thus a solution or suspension containing 10% by weight of each dopamine derivative hydrochloride was obtained. These solutions and suspensions were referred to as comparative samples f to i respectively.\nFurther polyethylene […] was added thereto to make the total amount 1000 mg. Thus, a solution or suspension containing 10% by weight of each dopamine derivative hydrochloride was prepared. These solutions and suspensions were referred to as invention samples I to N, respectively.\nThe abdominal hair of a male Wister rat, weighing 170 to 200 g and 7 weeks of age, was removed under anesthesia. […] Next, the whole abdominal skin was cleansed with 70% ethanol and then peeled off under anesthesia.\nThe peeled skin was fixed on the lid of a horizontal membrane type in vitro diffusion cell (penetration area: 7.54 cm^2) in such a manner that the epidermis served as the donor face. As a receiver solution, 50 ml of physiological saline solution or a 30% aqueous solutioh of polyethylene glycol 400 was employed. On the donor side, 0.5 g of a solution of each sample was applied by adding dropwise. Then the lid was fixed in a receptor while paying attention so no bubbles remained in the derm side, followed by storing it in an incubator maintained at 32° C. The receptor solution was stirred with a stirrer and 0.5 ml portions thereof were collected with the lapse of time so as to determine the dopamine derivative contained therein. The determination was effected by high performance liquid chromatography. (iii) Test Results"}, "[3]": {"conditions": "SOL I. Rajifer et al. 1986; cited from earlier work"}, "[4]": {"conditions": "oral drug; E. Lodola et al. 1986; cited from earlier work"}, "[5]": {"conditions": "cited from earlier work"}, "[6]": {"conditions": "5% aqueous solution of glyceryl monocaprylate; Okumura et al. 1989; cited from earlier work"}, "[7]": {"conditions": "Test Examples 2 to 4, FIGS. 2 to 4, 10% by weight in propylene glycol, 32° C."}, "[8]": {"conditions": "10% by weight in propylene glycol, 32° C."}}, "note": "Counter-ions that a name gives are not always drawn. Like-named read-outs stand apart in the source and are kept apart here.", "data": [{"smiles": "CC(CCc1ccc(O)cc1)NCCc1ccc(O)c(O)c1", "note": "(centres unmarked) [dobutamine]", "values": [{"measurement": "absorption when administered orally or percutaneously", "setting": "[1]", "result": "scarcely absorbed"}]}, {"smiles": "CCCC(=O)Oc1ccc(CCN)cc1OC(=O)CCC", "note": "[3,4-di-O-n-butyryldopamine hydrochloride]", "values": [{"measurement": "decomposition after penetrating into the skin", "setting": "[2]", "result": "considerably decomposed"}, {"measurement": "skin permeability on adding a lactic acid ester or a fatty acid monoglyceride", "setting": "[2]", "result": "extremely elevated"}]}, {"smiles": "NCCc1ccc(O)c(O)c1", "note": "[Dopamine]", "values": [{"measurement": "absorption when administered orally or percutaneously", "setting": "[1]", "result": "scarcely absorbed"}]}, {"smiles": "CNCCc1ccc(OC(=O)C(C)C)c(OC(=O)C(C)C)c1", "note": "[3,4-di-O-isobutyrylepinine hydrochloride]", "values": [{"measurement": "skin permeability on adding a lactic acid ester or a fatty acid monoglyceride", "setting": "[2]; [7]", "result": "extremely elevated"}, {"measurement": "skin permeability on adding a higher alcohol", "setting": "[2]; 32° C.", "result": "extremely elevated"}]}, {"smiles": "CC(C)C(=O)Oc1ccc(CCN)cc1OC(=O)C(C)C.Cl", "note": "[3,4-di-O-isobutyryldopamine hydrochloride]", "values": [{"measurement": "skin permeability on adding a lactic acid ester", "setting": "[2]; [8]", "result": "extremely elevated"}, {"measurement": "skin permeability on adding a higher alcohol", "setting": "[2]; 32° C.", "result": "extremely elevated"}]}, {"smiles": "CNCCc1ccc(OC(=O)C(C)C)c(OC(=O)C(C)C)c1", "note": "[ibopamine]", "values": [{"measurement": "duration of the effect on improvement of the circulation (cardiac coefficient)", "setting": "[3]", "result": "3 to 6", "unit": "h"}, {"measurement": "half-life in plasma", "setting": "[4]", "result": 1.54, "unit": "h"}]}, {"smiles": "CC(C)(C)C(=O)Oc1ccc(CCN)cc1OC(=O)C(C)(C)C.Cl", "note": "[3,4-di-O-pivaloyldopamine hydrochloride]", "values": [{"measurement": "skin permeability on adding a lactic acid ester", "setting": "[2]; [8]", "result": "extremely elevated"}, {"measurement": "skin permeability on adding a higher alcohol", "setting": "[2]; 32° C.", "result": "extremely elevated"}]}, {"smiles": "Cl.NCCc1ccc(OC(=O)c2cccnc2)c(OC(=O)c2cccnc2)c1", "note": "[3,4-di-O-nicotinoyldopamine hydrochloride]", "values": [{"measurement": "skin permeability on adding a lactic acid ester or a fatty acid monoglyceride", "setting": "[2]; [7]", "result": "extremely elevated"}, {"measurement": "skin permeability on adding a higher alcohol", "setting": "[2]; 32° C.", "result": "extremely elevated"}]}, {"smiles": "Cl.NCCc1ccc(O)c(O)c1", "note": "[dopamine hydrochloride]", "values": [{"measurement": "skin damage", "setting": "[5]; if percutaneously absorbed", "result": "causes skin damage"}, {"measurement": "irritation to the skin", "setting": "[5]; percutaneous", "result": "highly irritative to the skin"}, {"measurement": "percutaneous penetration rate relative to dopamine hydrochloride alone", "setting": "[6]", "result": 34, "unit": "times"}]}]}
